Laboratory results published in patent US20250092033A1, “HETEROAROMATIC NITROGEN-OXIDE COMPOUND, PREPARATION METHOD THEREFOR, AND USE THEREOF” (BEIJING AVISTONE BIOTECHNOLOGY CO., LTD., priority 2021, published 2025).

Tests used:
Format in all cases: biochemical
Conditions in all cases: 10 concentrations, 3-fold dilution
[1] = biological target: T1, wild type (WT) MET kinase (Homo sapiens, UniProt P08581); assay: Kinase inhibition experiment (HTRF KinEASE-TK kit), wild-type MET
T1 construct: purchased Carna 08-151
Protocol: (§1) The activity of the compounds was determined by detecting the residual amount of ATP after reacting with wild-type or mutant MET protein kinase by using an HTRF KinEASE-TK kit. […]
(§2) The compounds were determined on the selected kinase, the solvent control was set and a total of 10 concentrations were detected, diluted 3-fold, 2 replicates per concentration.
(§3) 1 volume of 5× kinase reaction buffer and 4 volumes of water; 5 mM MgCl2; 1 mM DTT; 1 mM MnCl2; or 2500 nm SEB.
(§4) 1) 10 nl or 4 μlof the diluted compound was transferred to each well of the reaction plate (784075 or 264706, Greiner or Thermo) with a pipette, the reaction plate was sealed with a sealing plate, and centrifuged at 1000 for 1 minute.
(§5) 2) 2× MET was prepared from 1× enzyme reaction buffer, 5 μl or 2 μl kinase was added to each well of the reaction plate, the reaction plate was sealed with a sealing plate, centrifuged at 1000 g for 30 seconds and incubated at room temperature for 10 min.
(§6) 3) a mixed solution of 2× TK-substrate-biotin and ATP were prepared from 1× enzyme reaction buffer solution, 5 μl or 2 μl TK-substrate-biotin/ATP of the mixed solution was added into a reaction plate, the reaction plate was sealed with a sealing plate, centrifuged at 1000 g for 30 seconds and reacted for 50 minutes or 10 minutes at room temperature.
(§7) 4) a mixed solution of 4× or 2× Sa-XL 665 and TK-antibody-Cryptate were prepared from HTRF detection buffer, 5 or 10 μl of the mixed solution of Sa-XL 665 and TK-antibody-Cryptate was added into each well, centrifuged at 1000 g for 30 seconds, and reacted at room temperature for 1 h.
(§8) 5) the fluorescence signals at 615 nm (cryptate) and 665 nm (XL665) were read with Envision 2104 or TECAN.
(§9) The data was analyzed using GraphPad Prism 6.0 or 7 software, and the dose-response curve was fitted with nonlinear S-curve regression, and the IC50 value was calculated therefrom.
(§10) Enzyme Inhibition Percent (%)=100-(Signalmpd-SignalAve_PC)/(SignalAve_VC-SignalAve_PC)×100

MET D1228N = biological target: T2, MET D1228N (Homo sapiens, UniProt P08581, D1228N); assay: Kinase inhibition experiment (HTRF KinEASE-TK kit), mutant MET D1228N
T2 construct: purchased Signalchem M52-12IG
Protocol: as §1, §2, §3, §4, §5, §6, §7, §8, §9, §10

MET F1200I = biological target: T3, MET F1200I (Homo sapiens, UniProt P08581, F1200I); assay: Kinase inhibition experiment (HTRF KinEASE-TK kit), mutant MET F1200I
T3 construct: purchased Signalchem M52-12GG/Y767-2
Protocol: as §1, §2, §3, §4, §5, §6, §7, §8, §9, §10

T1 sequence (P08581 25-1390): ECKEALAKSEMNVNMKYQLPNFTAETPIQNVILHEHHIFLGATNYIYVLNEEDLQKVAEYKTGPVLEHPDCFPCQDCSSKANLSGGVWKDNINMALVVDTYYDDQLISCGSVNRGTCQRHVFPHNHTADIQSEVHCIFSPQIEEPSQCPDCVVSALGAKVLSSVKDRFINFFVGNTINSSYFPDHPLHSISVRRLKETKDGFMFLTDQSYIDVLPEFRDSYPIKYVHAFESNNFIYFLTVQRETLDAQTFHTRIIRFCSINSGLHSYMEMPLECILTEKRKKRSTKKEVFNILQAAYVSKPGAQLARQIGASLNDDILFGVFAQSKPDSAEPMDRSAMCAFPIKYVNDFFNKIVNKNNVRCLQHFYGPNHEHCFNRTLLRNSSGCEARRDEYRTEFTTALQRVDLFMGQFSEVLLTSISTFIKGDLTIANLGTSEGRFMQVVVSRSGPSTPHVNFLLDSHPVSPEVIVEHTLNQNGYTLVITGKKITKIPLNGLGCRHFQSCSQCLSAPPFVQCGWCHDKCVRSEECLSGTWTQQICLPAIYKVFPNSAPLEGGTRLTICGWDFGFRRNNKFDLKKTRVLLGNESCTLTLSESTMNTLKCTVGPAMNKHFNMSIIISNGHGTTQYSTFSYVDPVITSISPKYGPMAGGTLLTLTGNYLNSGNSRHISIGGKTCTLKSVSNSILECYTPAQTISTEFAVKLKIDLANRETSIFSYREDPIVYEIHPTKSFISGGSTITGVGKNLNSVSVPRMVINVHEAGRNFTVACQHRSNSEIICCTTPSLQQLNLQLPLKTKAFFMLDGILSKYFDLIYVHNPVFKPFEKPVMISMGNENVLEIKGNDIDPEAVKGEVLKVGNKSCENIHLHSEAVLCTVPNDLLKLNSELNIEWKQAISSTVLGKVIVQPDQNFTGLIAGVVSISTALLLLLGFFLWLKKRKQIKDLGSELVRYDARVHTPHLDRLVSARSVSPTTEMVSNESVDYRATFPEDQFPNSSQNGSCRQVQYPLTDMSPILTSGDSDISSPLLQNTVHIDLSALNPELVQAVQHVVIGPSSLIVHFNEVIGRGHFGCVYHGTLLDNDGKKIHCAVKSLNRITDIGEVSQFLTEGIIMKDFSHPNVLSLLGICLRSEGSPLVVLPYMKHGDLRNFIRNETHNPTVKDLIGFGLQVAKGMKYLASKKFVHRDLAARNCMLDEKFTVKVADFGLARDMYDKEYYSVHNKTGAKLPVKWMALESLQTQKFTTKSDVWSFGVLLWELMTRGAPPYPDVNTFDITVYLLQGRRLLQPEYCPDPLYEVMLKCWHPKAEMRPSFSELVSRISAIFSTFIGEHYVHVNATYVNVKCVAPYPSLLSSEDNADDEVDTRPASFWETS
T2 sequence (P08581 25-1390 D1228N): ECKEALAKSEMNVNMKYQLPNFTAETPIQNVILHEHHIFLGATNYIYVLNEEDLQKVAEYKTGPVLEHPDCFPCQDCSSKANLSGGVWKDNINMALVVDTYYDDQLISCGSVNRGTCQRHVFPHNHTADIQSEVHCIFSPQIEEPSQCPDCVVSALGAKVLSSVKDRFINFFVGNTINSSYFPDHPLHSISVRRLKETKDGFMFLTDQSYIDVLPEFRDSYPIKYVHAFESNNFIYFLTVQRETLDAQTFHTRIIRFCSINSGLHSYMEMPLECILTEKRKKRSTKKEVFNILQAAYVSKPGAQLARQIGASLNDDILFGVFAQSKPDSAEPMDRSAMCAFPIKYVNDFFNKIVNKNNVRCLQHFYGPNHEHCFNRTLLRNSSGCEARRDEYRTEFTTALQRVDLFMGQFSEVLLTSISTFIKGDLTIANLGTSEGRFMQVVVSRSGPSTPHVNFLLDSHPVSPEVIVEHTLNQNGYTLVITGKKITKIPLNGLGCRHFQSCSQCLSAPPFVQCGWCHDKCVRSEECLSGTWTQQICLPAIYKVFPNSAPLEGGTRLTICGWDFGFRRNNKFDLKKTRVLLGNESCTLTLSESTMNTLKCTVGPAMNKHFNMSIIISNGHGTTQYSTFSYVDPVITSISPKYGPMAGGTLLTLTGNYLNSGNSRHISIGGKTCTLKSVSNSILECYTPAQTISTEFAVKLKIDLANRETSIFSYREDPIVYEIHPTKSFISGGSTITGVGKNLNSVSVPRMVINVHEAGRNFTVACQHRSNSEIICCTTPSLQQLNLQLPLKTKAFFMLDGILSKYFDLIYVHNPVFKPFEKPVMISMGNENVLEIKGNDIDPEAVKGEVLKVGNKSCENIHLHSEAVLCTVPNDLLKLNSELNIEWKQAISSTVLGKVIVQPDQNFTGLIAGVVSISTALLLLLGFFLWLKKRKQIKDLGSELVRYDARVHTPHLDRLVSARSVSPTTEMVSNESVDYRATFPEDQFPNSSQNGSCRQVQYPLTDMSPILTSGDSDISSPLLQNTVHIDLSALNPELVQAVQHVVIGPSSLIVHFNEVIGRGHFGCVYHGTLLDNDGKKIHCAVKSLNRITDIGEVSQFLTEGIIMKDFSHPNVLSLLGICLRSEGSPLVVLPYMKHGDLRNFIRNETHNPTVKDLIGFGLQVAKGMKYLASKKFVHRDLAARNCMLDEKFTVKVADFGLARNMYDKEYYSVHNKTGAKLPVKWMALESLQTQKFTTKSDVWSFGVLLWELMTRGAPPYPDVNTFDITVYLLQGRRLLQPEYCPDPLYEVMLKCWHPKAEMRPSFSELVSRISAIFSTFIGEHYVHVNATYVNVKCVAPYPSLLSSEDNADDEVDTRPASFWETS
T3 sequence (P08581 25-1390 F1200I): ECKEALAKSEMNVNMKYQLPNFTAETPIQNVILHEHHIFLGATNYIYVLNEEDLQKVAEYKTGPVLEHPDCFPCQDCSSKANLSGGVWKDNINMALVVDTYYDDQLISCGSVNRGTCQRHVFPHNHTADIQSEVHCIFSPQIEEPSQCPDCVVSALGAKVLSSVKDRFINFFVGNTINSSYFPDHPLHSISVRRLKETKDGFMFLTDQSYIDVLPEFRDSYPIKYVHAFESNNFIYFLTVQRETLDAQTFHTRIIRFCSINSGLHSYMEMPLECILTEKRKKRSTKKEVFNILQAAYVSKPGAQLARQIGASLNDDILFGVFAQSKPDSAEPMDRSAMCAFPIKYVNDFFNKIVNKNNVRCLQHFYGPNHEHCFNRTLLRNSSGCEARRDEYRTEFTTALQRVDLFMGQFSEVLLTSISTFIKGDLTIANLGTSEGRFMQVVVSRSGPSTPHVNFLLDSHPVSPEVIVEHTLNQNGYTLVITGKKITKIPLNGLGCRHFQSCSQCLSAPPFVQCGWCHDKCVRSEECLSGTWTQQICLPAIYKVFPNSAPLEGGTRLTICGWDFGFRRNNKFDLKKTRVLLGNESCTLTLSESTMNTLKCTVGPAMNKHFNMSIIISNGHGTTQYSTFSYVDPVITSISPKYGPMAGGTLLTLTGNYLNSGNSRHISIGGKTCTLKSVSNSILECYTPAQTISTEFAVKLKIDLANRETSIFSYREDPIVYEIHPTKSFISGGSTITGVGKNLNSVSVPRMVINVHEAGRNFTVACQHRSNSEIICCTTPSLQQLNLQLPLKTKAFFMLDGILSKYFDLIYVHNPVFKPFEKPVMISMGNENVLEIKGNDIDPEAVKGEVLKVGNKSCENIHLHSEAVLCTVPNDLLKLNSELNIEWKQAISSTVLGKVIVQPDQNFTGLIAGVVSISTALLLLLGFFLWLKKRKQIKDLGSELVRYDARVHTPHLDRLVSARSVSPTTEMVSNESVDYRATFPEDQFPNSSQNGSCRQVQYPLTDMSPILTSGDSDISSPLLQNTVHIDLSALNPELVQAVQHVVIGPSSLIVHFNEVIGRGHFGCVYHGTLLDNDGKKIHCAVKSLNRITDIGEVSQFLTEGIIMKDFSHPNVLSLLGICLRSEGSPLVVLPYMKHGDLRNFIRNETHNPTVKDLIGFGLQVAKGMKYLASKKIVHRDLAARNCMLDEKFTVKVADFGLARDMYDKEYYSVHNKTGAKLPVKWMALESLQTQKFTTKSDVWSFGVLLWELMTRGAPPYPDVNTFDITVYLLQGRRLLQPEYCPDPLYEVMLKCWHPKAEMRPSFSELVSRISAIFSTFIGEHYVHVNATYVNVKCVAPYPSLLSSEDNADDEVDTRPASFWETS

| Compound | IC50 [1] | IC50 (MET D1228N) | IC50 (MET F1200I) |
| --- | --- | --- | --- |
| O=C(Nc1ccc(Oc2ccnc3[nH]nc(NCCO)c23)c(F)c1)c1cccc(-c2ccc(F)cc2)[n+]1[O-] [Final product 1] | 2.3 nM | 35.4 nM | 5.8 nM |
| C[C@@H](CO)Nc1n[nH]c2nccc(Oc3ccc(NC(=O)c4cccc(-c5ccc(F)cc5)[n+]4[O-])cc3F)c12 [Final product 3] | 4.3 nM | 13.1 nM | 18.3 nM |
| CC[C@@H](CO)Nc1n[nH]c2nccc(Oc3ccc(NC(=O)c4cccc(-c5ccc(F)cc5)[n+]4[O-])cc3F)c12 [Final product 6] | 8.5 nM | 30 nM | 21.4 nM |
| CC(O)CNc1n[nH]c2nccc(Oc3ccc(NC(=O)c4cccc(-c5ccc(F)cc5)[n+]4[O-])cc3F)c12 (stereo not drawn) [Final product 8] | 4.6 nM | 28.4 nM | 2.3 nM |
| CCC(O)CNc1n[nH]c2nccc(Oc3ccc(NC(=O)c4cccc(-c5ccc(F)cc5)[n+]4[O-])cc3F)c12 (stereo not drawn) [Final product 9] | 3.8 nM | 25.6 nM | 20.8 nM |
| O=C(Nc1ccc(Oc2ccnc3[nH]nc(NCC(O)C(F)(F)F)c23)c(F)c1)c1cccc(-c2ccc(F)cc2)[n+]1[O-] (stereo not drawn) [Final product 11] | 6.3 nM | 35.7 nM | 16.8 nM |
| C[C@@H](Nc1n[nH]c2nccc(Oc3ccc(NC(=O)c4cccc(-c5ccc(F)cc5)[n+]4[O-])cc3F)c12)C(C)(C)O [Final product 16] | 7.5 nM | 28.2 nM | 25.8 nM |

The next lines start with the values.

| IC50 [1] | IC50 (MET D1228N) | IC50 (MET F1200I) | Compound |
| --- | --- | --- | --- |
| 6.9 nM | 29.9 nM | 20.1 nM | O=C(Nc1ccc(Oc2ccnc3[nH]nc(NCC4(CO)CC(O)C4)c23)c(F)c1)c1cccc(-c2ccc(F)cc2)[n+]1[O-] (stereo not drawn) [Final product 20] |
| 5.9 nM | 25.5 nM | 15.5 nM | O=C(Nc1ccc(Oc2ccnc3[nH]nc(NC4(CO)CC4)c23)c(F)c1)c1cccc(-c2ccc(F)cc2)[n+]1[O-] [Final product 22] |
| 3.3 nM | 21 nM | 12.5 nM | O=C(Nc1ccc(Oc2ccnc3[nH]nc(N[C@H]4C[C@H](O)C4)c23)c(F)c1)c1cccc(-c2ccc(F)cc2)[n+]1[O-] [Final product 23] |
| 3.8 nM | 18.1 nM | 9.5 nM | O=C(Nc1ccc(Oc2ccnc3[nH]nc(N4CCC(O)CC4)c23)c(F)c1)c1cccc(-c2ccc(F)cc2)[n+]1[O-] [Final product 26, 2-((3-fluoro-4-((3-(4-hydroxypiperidin-1-yl)-1H-pyrazolo[3,4-b]pyridin-4-yl)oxy)phenyl)carbamoyl)-6-(4-fluorophenyl)pyridine 1-oxide] |
| 4.5 nM | 13.4 nM | 8.6 nM | CC1(O)CCN(c2n[nH]c3nccc(Oc4ccc(NC(=O)c5cccc(-c6ccc(F)cc6)[n+]5[O-])cc4F)c23)CC1 [Final product 27] |
| 5.2 nM | 15.8 nM | 20.4 nM | CC1(CO)CCN(c2n[nH]c3nccc(Oc4ccc(NC(=O)c5cccc(-c6ccc(F)cc6)[n+]5[O-])cc4F)c23)CC1 [Final product 29] |
| 9.7 nM | 30.5 nM | 21.1 nM | O=C(Nc1ccc(Oc2ccnc3[nH]nc(N4CCC[C@H](CO)C4)c23)c(F)c1)c1cccc(-c2ccc(F)cc2)[n+]1[O-] [Final product 33] |
| – | 45.6 nM | 22.5 nM | O=C(Nc1ccc(Oc2ccnc3[nH]nc(N[C@H]4CC[C@H](O)CC4)c23)c(F)c1)c1ccc(Cl)c(-c2ccc(F)cc2)[n+]1[O-] [Final product 64] |
| 12.1 nM | 41.2 nM | – | C[C@H](CO)Nc1n[nH]c2nccc(Oc3ccc(NC(=O)c4cc(C5CC5)cc(-c5ccc(F)cc5)[n+]4[O-])cc3F)c12 [Final product 91] |
| 11.7 nM | 29.2 nM | – | COc1ccc2ncnc(Nc3ccc(NC(=O)c4cccc(-c5ccc(F)cc5)[n+]4[O-])cc3F)c2c1O[C@H](C)CO [Final product 181, (R)-2-((3-fluoro-4-((5-((1-hydroxypropan-2-yl)oxy)-6-methoxyquinazolin-4-yl)amino)phenyl)carbamoyl)-6-(4-fluorophenyl)pyridine 1-oxide] |
